Assay results: patent US20050282755A1, “Compositions having antimicrobial activity and uses thereof” (priority 2004, published 2005)
Values after ≈ are worked out from the molar mass of the structure shown. Non-standard residues stand in square brackets, D forms with d. Residues, ends and D or L forms follow the SMILES beside them. *: point of attachment. Hexanoyl = CCCCCC(=O)*; Ahx = NCCCCCC(=O)O; βAla = NCCC(=O)O

What was measured:
[1] = tested on: Salmonella dublin (Lane); experiment: MIC, NCCLS M7-A6 broth microdilution (Table 9, no superscript); assay type: cell-based
Procedure: (§1) Cation-adjusted Mueller Hinton broth was used in the broth microdilution method. In brief, a log-phase bacterial suspension was used to inoculate wells of a 96-well plate so that the final inoculum for each well contained 5×10^5 to 1×10^6 CFU/milliliter. […] Plates were incubated overnight at 37° C. The lowest concentration of peptide that contained no visible growth as evidenced by a lack of turbidity when compared to the control (no peptide) was determined as the MIC. Unless otherwise noted, MIC values listed in Table 9 utilized this method of MIC determination.

[2] = tested on: Staphylococcus aureus ATCC 29213; experiment: MIC, NCCLS M7-A6 broth microdilution, cation-adjusted Mueller Hinton broth (Table 9, no superscript); assay type: cell-based; settings: ATCC 29213
Procedure: as §1

Row | SMILES | MIC S. dublin [1] [mg/L] | MIC S. aureus [2] [mg/L]
1 | CSCC[C@H](NC(=O)[C@H](Cc1ccccc1)NC(=O)[C@H](CC(N)=O)NC(=O)[C@H](CCCNC(=N)N)NC(=O)[C@H](CO)NC(=O)[C@H](Cc1c[nH]c2ccccc12)NC(=O)[C@H](CC(=O)O)NC(=O)[C@H](CCCNC(=N)N)NC(=O)[C@H](Cc1c[nH]c2ccccc12)NC(=O)[C@H](CCCNC(=N)N)NC(=O)[C@H](CO)NC(=O)[C@H](CCCNC(=N)N)NC(=O)CNC(=O)[C@@H](NC(=O)[C@H](CCCNC(=N)N)NC(=O)[C@H](CO)NC(=O)[C@@H](NC(=O)[C@H](CCCNC(=N)N)NC(=O)[C@@H](NC(C)=O)[C@@H](C)O)C(C)C)[C@@H](C)O)C(=O)N[C@@H](CCCNC(=N)N)C(=O)N[C@@H](C)C(=O)N[C@@H](C)C(=O)N[C@@H](CCCCN)C(=O)N[C@@H](CCCCN)C(=O)N[C@@H](CCCCN)C(=O)N[C@@H](CCCCN)C(N)=O [Peptide 5] (Ac-TRVSRTGRSRWRDWSRNFMRAAKKKK-NH2) | >64 | >64
2 | CSCC[C@H](NC(=O)[C@H](Cc1ccccc1)NC(=O)[C@H](CC(N)=O)NC(=O)[C@H](CCCNC(=N)N)NC(=O)[C@H](CO)NC(=O)[C@H](Cc1c[nH]c2ccccc12)NC(=O)[C@H](CC(=O)O)NC(=O)[C@H](CCCNC(=N)N)NC(=O)[C@H](Cc1c[nH]c2ccccc12)NC(=O)[C@H](CCCNC(=N)N)NC(=O)[C@H](CO)NC(=O)[C@H](CCCNC(=N)N)NC(=O)CNC(=O)[C@@H](NC(=O)[C@H](CCCNC(=N)N)NC(=O)[C@H](CO)NC(=O)[C@@H](NC(=O)[C@H](CCCNC(=N)N)NC(=O)[C@@H](NC(=O)[C@H](C)NC(=O)[C@H](C)NC(=O)[C@H](CCCCN)NC(=O)[C@H](CCCCN)NC(=O)[C@H](CCCCN)NC(=O)[C@H](CCCCN)NC(C)=O)[C@@H](C)O)C(C)C)[C@@H](C)O)C(=O)N[C@@H](CCCNC(=N)N)C(=O)N[C@@H](C)C(=O)N[C@@H](C)C(=O)N[C@@H](CCCCN)C(=O)N[C@@H](CCCCN)C(=O)N[C@@H](CCCCN)C(=O)N[C@@H](CCCCN)C(N)=O [Peptide 8] (Ac-KKKKAATRVSRTGRSRWRDWSRNFMRAAKKKK-NH2) | >64 | >64
3 | CSCC[C@H](NC(=O)[C@H](Cc1ccccc1)NC(=O)[C@H](CC(N)=O)NC(=O)[C@H](CCCNC(=N)N)NC(=O)[C@H](CO)NC(=O)[C@H](Cc1c[nH]c2ccccc12)NC(=O)[C@H](CC(=O)O)NC(=O)[C@H](CCCNC(=N)N)NC(=O)[C@H](Cc1c[nH]c2ccccc12)NC(=O)[C@H](CCCNC(=N)N)NC(=O)[C@H](CO)NC(=O)[C@H](CCCNC(=N)N)NC(=O)CNC(=O)[C@@H](NC(=O)[C@H](CCCNC(=N)N)NC(=O)[C@H](CO)NC(=O)[C@@H](NC(=O)[C@H](CCCNC(=N)N)NC(=O)[C@@H](NC(=O)CCN)[C@@H](C)O)C(C)C)[C@@H](C)O)C(=O)N[C@@H](CCCNC(=N)N)C(=O)N[C@@H](C)C(=O)N[C@@H](C)C(N)=O [Peptide 18] (H-[βAla]TRVSRTGRSRWRDWSRNFMRAA-NH2) | >64 | >64

Continued, values first:

Row | MIC S. dublin [1] [mg/L] | MIC S. aureus [2] [mg/L] | SMILES
4 | >64 | >64 | CC[C@H](C)[C@H](NC(=O)[C@@H](NC(=O)[C@H](CC(C)C)NC(=O)[C@H](CO)NC(=O)[C@@H](NC(=O)[C@H](CCCNC(=N)N)NC(=O)[C@H](Cc1ccc(O)cc1)NC(=O)[C@H](CC(=O)O)NC(=O)[C@H](CCCNC(=N)N)NC(C)=O)[C@@H](C)O)[C@@H](C)O)C(=O)N[C@H](C(=O)N[C@@H](CCC(N)=O)C(=O)N[C@@H](CCCCN)C(=O)NCCCCCC(=O)N[C@H](C(=O)N[C@@H](CCCNC(=N)N)C(=O)N[C@H](C(=O)N[C@@H](CO)C(=O)N[C@@H](CCCNC(=N)N)C(=O)N[C@H](C(=O)NCC(=O)N[C@@H](CCCNC(=N)N)C(=O)N[C@@H](CO)C(=O)N[C@@H](CCCNC(=N)N)C(=O)N[C@@H](Cc1c[nH]c2ccccc12)C(=O)N[C@@H](CCCNC(=N)N)C(=O)N[C@@H](CC(=O)O)C(=O)N[C@@H](Cc1c[nH]c2ccccc12)C(=O)N[C@@H](CO)C(=O)N[C@@H](CCCNC(=N)N)C(=O)N[C@@H](CC(N)=O)C(=O)N[C@@H](Cc1ccccc1)C(=O)N[C@@H](CCSC)C(=O)N[C@@H](CCCNC(=N)N)C(N)=O)[C@@H](C)O)C(C)C)[C@@H](C)O)C(C)C [Peptide 28, Ac-RDYRTSLTIVQKXTRVSRTGRSRWRDWSRNFMR-NH2 X = aminohexanoic acid] (Ac-RDYRTSLTIVQK[Ahx]TRVSRTGRSRWRDWSRNFMR-NH2)
5 | 32 (≈ 11.1 µM) | >64 | CSCC[C@H](NC(=O)[C@H](Cc1ccccc1)NC(=O)[C@H](CC(N)=O)NC(=O)[C@H](CCCNC(=N)N)NC(=O)[C@H](CO)NC(=O)[C@H](Cc1c[nH]c2ccccc12)NC(=O)[C@H](CC(=O)O)NC(=O)[C@H](CCCNC(=N)N)NC(=O)[C@H](Cc1c[nH]c2ccccc12)NC(=O)[C@H](CCCNC(=N)N)NC(=O)[C@H](CO)NC(=O)[C@H](CCCNC(=N)N)NC(=O)CNC(=O)[C@@H](NC(=O)[C@H](CCCNC(=N)N)NC(=O)[C@H](CO)NC(=O)[C@@H](NC(=O)[C@H](CCCNC(=N)N)NC(=O)[C@@H](NC(C)=O)[C@@H](C)O)C(C)C)[C@@H](C)O)C(=O)N[C@@H](CCCNC(=N)N)C(=O)N[C@@H](CC(C)C)C(=O)N[C@@H](CC(C)C)C(N)=O [Peptide 19] (Ac-TRVSRTGRSRWRDWSRNFMRLL-NH2)
6 | 16 (≈ 7.29 µM) | 8 (≈ 3.64 µM) | CCCCCCCCCCCC(=O)NCCNC(=O)C[C@H](CCCNC(=N)N)NC(=O)C[C@H](CC(C)C)NC(=O)C[C@H](Cc1ccccc1)NC(=O)C[C@H](CCCNC(=N)N)NC(=O)C[C@H](CC(N)=O)NC(=O)C[C@@H](NC(=O)C[C@H](CCCNC(=N)N)NC(=O)C[C@H](CC(=O)O)NC(=O)C[C@@H](NC(=O)C[C@H](CCCNC(=N)N)NC(=O)C[C@H](CO)NC(=O)C[C@H](Cc1c[nH]c2ccccc12)NC(=O)C[C@@H](N)CCCNC(=N)N)[C@@H](C)CC)[C@@H](C)CC [Peptide 216, H2N-RWSRIDRINRFLR-Ethylamidolauryl all amino acids are beta3]
7 | >64 | >64 | CCCCCC(=O)NCCCC[C@@H](NC(=O)[C@@H](CCCNC(=N)N)NC(=O)[C@@H](CCSC)NC(=O)[C@@H](Cc1ccccc1)NC(=O)[C@@H](CC(N)=O)NC(=O)[C@@H](CCCNC(=N)N)NC(=O)[C@@H](C)NC(=O)[C@H](NC(=O)[C@@H](CC(=O)O)NC(=O)[C@@H](CCCNC(=N)N)NC(=O)[C@@H](Cc1c[nH]c2ccccc12)NC(=O)[C@@H](CCCNC(=N)N)NC(=O)[C@@H](CO)NC(=O)[C@H](N)CCCNC(=N)N)C(C)C)C(N)=O [Peptide 197, H2N-rsrwrdvarnfmrk(Hexanyl)-NH2] (H-[dR][dS][dR][dW][dR][dD][dV][dA][dR][dN][dF][dM][dR][dK](Hexanoyl)-NH2)
8 | >64 | >64 | CCCCCC(=O)NCCCC[C@H](NC(=O)[C@H](CCCNC(=N)N)NC(=O)[C@H](CCSC)NC(=O)[C@H](Cc1ccccc1)NC(=O)[C@H](CC(N)=O)NC(=O)[C@H](CCCNC(=N)N)NC(=O)[C@H](C)NC(=O)[C@@H](NC(=O)[C@H](CC(=O)O)NC(=O)[C@H](CCCNC(=N)N)NC(=O)[C@H](Cc1c[nH]c2ccccc12)NC(=O)[C@H](CCCNC(=N)N)NC(=O)[C@H](CO)NC(=O)[C@@H](N)CCCNC(=N)N)C(C)C)C(N)=O [Peptide 183, H2N-RSRWRDVARNFMRK(Hexanyl)-NH2] (H-RSRWRDVARNFMRK(Hexanoyl)-NH2)
